Experimental data: patent publication US20130231347A1, “METHOD OF TREATMENT WITH BRAF INHIBITOR” (GLAXOSMITHKLINE INTELLECTUAL PROPERTY (NO.2) LIMITED, priority 2010, published 2013)
Read-outs that look alike come from different tables or passages of the source.

What was measured:
[1] = tested on: phosphorylation of MEK, ERK, S6P and cyclin D1 protein in A375 cells; test: Western blot of signaling effects, parental cells; assay type: cell-based, human; conditions: western blot (FIG. 10)
Text: (§1) Phospho-AKT (T308), phospho-AKT (S473), AKT, ERK, phospho-S6P (S235/236), S6P, cyclin D1, phospho-MEK1/2 (S217/S221), MEK1/2, MEK1, MEK2, and cleaved PARP antibodies were purchased from Cell Signaling. Primary antibodies to GAPDH, RAF-1, BRAF, and ARAF were purchased from Santa Cruz Biotechnology. Diphospho-ERK1/2 (T202/Y204) antibodies were purchased from Sigma and p27kip1 antibodies were purchased from Epitomics. Anti-Mouse IRDYE® 800CW antibody was purchased from LI-COR Biosciences. Anti-rabbit ALEXA FLUOR® 680 antibodies were purchased from Invitrogen. Compound A, Compound B, Compound C, and PLX4032 (20) were synthesized by GlaxoSmithKline Research Labs and the structures are shown in FIG. 7.

[2] = tested on: 16R6-4 (A375 F11 clone with acquired resistance to Compound A); test: Cell growth inhibition assay (Cell Titer Glo, 3 days); assay type: cell-based; conditions: Homo sapiens, A-375, 72 h, 16R6-4: NRAS Q61Q/K, A146A/T, MEK1 P387P/S, single agent, read-out: IC50, Single Agent Effect, Compound A
Description: (§3) A clonal isolate, hereinafter referred to as “A375 F11”, was obtained from the A375 cell line (obtained from ATCC), based on increased sensitivity to a BRAF inhibitor. A375 F11 cells were exposed to increasing concentrations of Compound A and maintained in a final concentration of 1.26 μM or 1.6 μM. 12R5-3, 12R8-1, 12R8-3, 16R5-5, 16R6-2, 16R6-3 and 16R6-4 were derived as single cell clones from mixed populations of these A375 F11 cells selected to grow in the presence of Compound A. All cells were grown in RPMI 1640 medium containing 10% Fetal Bovine Serum (FBS).
(§4) All cells were cultured without compound, e.g. Compound A, for a minimum of 72 hours prior to cell plating. Cells were assayed in a 96-well tissue culture plate (NUNC 136102) of RPMI medium containing 10% FBS for all cells at 1,000 cells per well. Approximately 24 hours after plating, cells were exposed to ten, three-fold serial dilutions of compound or the combination of the two agents at a constant molar to molar ratio, e.g. 10:1 Compound A to Compound B, in RPMI media containing 10% FBS. Cells were incubated in the presence of compounds for 3 days. ATP levels were determined by adding Cell Titer Glo® (Promega) according to the manufacturer's protocol. Briefly, Cell Titer Glo® was added each plate, incubated for 30 minutes then luminescent signal was read on the SpectraMax L plate reader with a 0.5 sec integration time. Inhibition of cell growth was estimated after treatment with compound or combination of compounds for three days and comparing the Cell Titer Glo® signal to cells treated with vehicle (DMSO). Cell growth was calculated relative to vehicle (DMSO) treated control wells.
(§5) For single agent and combination treatments, cells were exposed to compounds at a fixed-dose-ratio, and dose response curves were fit to the experimental data and analyzed using regression models.

[3] = tested on: 16R5-5 (A375 F11 clone with acquired resistance to Compound A); test: as above; assay type: cell-based; conditions: Homo sapiens, A-375, 72 h, 16R5-5: NRAS Q61Q/K, MEK1 P387P/S, single agent, read-out: IC50, Single Agent Effect, Compound A
Description: as §3, §4, §5

A375 F11 cells = test: as above; assay type: cell-based; conditions: Homo sapiens, 72 h, F11: NRAS WT, MEK1 WT, single agent, mean ± std, read-out: IC50, Single Agent Effect, Compound A
Description: as §3, §4, §5

[4] = tested on: 12R5-1 (A375 F11 clone with acquired resistance to Compound A); test: as above; assay type: cell-based; conditions: Homo sapiens, A-375, 72 h, 12R5-1: NRAS WT, MEK1 HET 59delK, single agent, read-out: IC50, Single Agent Effect, Compound A
Description: as §3, §4, §5

[5] = tested on: 12R8-1 (A375 F11 clone with acquired resistance to Compound A); test: as above; assay type: cell-based; conditions: Homo sapiens, A-375, 72 h, 12R8-1: NRAS A146A/T, MEK1 WT, single agent, read-out: IC50, Single Agent Effect, Compound A
Description: as §3, §4, §5

[6] = tested on: 12R8-3 (A375 F11 clone with acquired resistance to Compound A); test: as above; assay type: cell-based; conditions: Homo sapiens, A-375, 72 h, 12R8-3: NRAS A146A/T, MEK1 WT, single agent, read-out: IC50, Single Agent Effect, Compound A
Description: as §3, §4, §5

[7] = tested on: YUSIT1 clones that acquired resistance to Compound A (BRAF V600K); test: Cell growth inhibition assay, resistant YUSIT1 clones; assay type: cell-based, human
Text: The YUSIT1 melanoma cells were obtained from Yale Dermatology Cell Culture Facility.

[8] = tested on: 16R6-3 (A375 F11 clone with acquired resistance to Compound A); test: Cell growth inhibition assay (Cell Titer Glo, 3 days); assay type: cell-based; conditions: Homo sapiens, A-375, 72 h, 16R6-3: NRAS A146A/T, MEK1 P387P/S, single agent, read-out: IC50, Single Agent Effect, Compound A
Description: as §3, §4, §5

[9] = tested on: 16R6-2 (A375 F11 clone with acquired resistance to Compound A); test: as above; assay type: cell-based; conditions: Homo sapiens, A-375, 72 h, 16R6-2: NRAS Q61Q/K, MEK1 P387P/S, single agent, read-out: IC50, Single Agent Effect, Compound A
Description: as §3, §4, §5

[10] = tested on: 12R5-3 (A375 F11 clone with acquired resistance to Compound A); test: as above; assay type: cell-based; conditions: Homo sapiens, A-375, 72 h, 12R5-3: NRAS A146A/T, MEK1 WT, single agent, read-out: IC50, Single Agent Effect, Compound A
Description: as §3, §4, §5

[11] = tested on: A375 cells expressing MEK1Q56P; test: Proliferation of BacMAM-transduced A375 cells; assay type: cell-based; conditions: Homo sapiens, A-375, read-out: IC50, inhibition of proliferation
Description: (§2) BacMAM constructs were generated using MEK1 cDNA and mutations in MEK1 were introduced using site directed mutagenesis. BacMAM virus particles were prepared as described in the supplemental methods. A375 cells were transduced with the indicated BacMAM virus. Forty-eight hours post transduction, cells were plated for subsequent proliferation and western blot analysis as described above.

[12] = tested on: A375 cells expressing MEK1F129L; test: Proliferation of BacMAM-transduced A375 cells; assay type: cell-based; conditions: Homo sapiens, A-375, read-out: IC50, inhibition of proliferation
Description: as §2

[13] = tested on: A375 cells expressing wild-type MEK1; test: Proliferation of BacMAM-transduced A375 cells; assay type: cell-based; conditions: Homo sapiens, A-375, read-out: IC50, inhibition of proliferation
Description: as §2

[14] = tested on: A375 cells expressing MEK1K59del; test: Proliferation of BacMAM-transduced A375 cells; assay type: cell-based; conditions: Homo sapiens, A-375, read-out: IC50, inhibition of proliferation
Description: as §2

A375 cells, Mock = test: Proliferation of BacMAM-transduced A375 cells; assay type: cell-based; conditions: Homo sapiens, A-375, read-out: IC50, inhibition of proliferation
Description: as §2

[15] = tested on: A375 cells expressing MEK1P124L; test: Proliferation of BacMAM-transduced A375 cells; assay type: cell-based; conditions: Homo sapiens, A-375, read-out: IC50, inhibition of proliferation
Description: as §2

[16] = tested on: A375 cells expressing MEK1C121S; test: Proliferation of BacMAM-transduced A375 cells; assay type: cell-based; conditions: Homo sapiens, A-375, read-out: IC50, inhibition of proliferation
Description: as §2

[17] = tested on: A375 F11 clones that acquired resistance to Compound A; test: Cell growth inhibition assay, resistant A375 clones taken together; conditions: Homo sapiens
Description: as §3, §4, §5

[18] = tested on: 12R5-5 (A375 F11 clone with acquired resistance to Compound A); test: Cell growth inhibition assay (Cell Titer Glo, 3 days); assay type: cell-based; conditions: Homo sapiens, A-375, 72 h, 12R5-5: NRAS WT, MEK1 HET 59delK, single agent, read-out: IC50, Single Agent Effect, Compound A
Description: as §3, §4, §5

[19] = tested on: phosphorylation of MEK, ERK, S6P in A375 clones resistant to Compound A; test: Western blot of signaling effects, resistant clones; assay type: cell-based, human; conditions: western blot (FIG. 10)
Text: as §1

## CC(C)(C)c1nc(-c2cccc(NS(=O)(=O)c3c(F)cccc3F)c2F)c(-c2ccnc(N)n2)s1 [Compound A, N-{3-[5-(2-Amino-4-pyrimidinyl)-2-(1,1-dimethylethyl)-1,3-thiazol-4-yl]-2-fluorophenyl}-2,6-difluorobenzenesulfonamide]
[1]
  decrease of cyclin D1 protein levels: more than 65%
  inhibition of phosphorylation of MEK, ERK, and S6P: more than 75%
[2]
  IC50: > 10000 nM
[3]
  IC50: > 10000 nM
A375 F11 cells
  IC50: 24 ± 17 nM
[4]
  IC50: > 10000 nM
[5]
  IC50: > 10000 nM
[6]
  IC50: > 10000 nM
[7]; Homo sapiens, read-out: IC50, cell growth inhibition
  IC50: > 500 nM
[7]; YUSIT1 clones resistant to Compound A, single agent (FIG. 9)
  reduced sensitivity compared to the parental YUSIT1 cells: ≥ 38 fold
[8]
  IC50: > 10000 nM
[9]
  IC50: > 10000 nM
[10]
  IC50: > 10000 nM
[11]
  IC50: ≥ 420 nM
[12]
  IC50: 140 nM
[13]
  IC50: 28 nM
[14]
  IC50: 179 nM
A375 cells, Mock
  IC50: 30 nM
[15]
  IC50: 84 nM
[16]
  IC50: ≥ 330 nM
[17]; A-375, read-out: IC50, cell growth
  IC50: > 10000 nM
[17]; A-375, read-out: IC50, cell growth inhibition, single agent
  IC50: > 10000 nM
[17]; A-375, read-out: IC50 of the combination, for Compound A
  IC50: 178 to 392 nM
[18]
  IC50: > 10000 nM
[19]
  reduction of ERK phosphorylation: less than 50%
  reduction of S6P phosphorylation: < 25%
